From BindingDB's records for doi:10.1074/jbc.M608182200 (Johnson & Johnson Pharmaceutical, 2007)

Tests used:
Assay in all cases: cFMs Autophosphorylation Fluorescence Polarization End Point Assay.
Settings in all cases: pH 7.5; 22 °C
[1] = target: T1, Macrophage colony-stimulating factor 1 receptor [538-678,753-922] (Homo sapiens, UniProt P07333)
T1 construct: 538-678,753-922
T1 sequence (P07333 whole entry): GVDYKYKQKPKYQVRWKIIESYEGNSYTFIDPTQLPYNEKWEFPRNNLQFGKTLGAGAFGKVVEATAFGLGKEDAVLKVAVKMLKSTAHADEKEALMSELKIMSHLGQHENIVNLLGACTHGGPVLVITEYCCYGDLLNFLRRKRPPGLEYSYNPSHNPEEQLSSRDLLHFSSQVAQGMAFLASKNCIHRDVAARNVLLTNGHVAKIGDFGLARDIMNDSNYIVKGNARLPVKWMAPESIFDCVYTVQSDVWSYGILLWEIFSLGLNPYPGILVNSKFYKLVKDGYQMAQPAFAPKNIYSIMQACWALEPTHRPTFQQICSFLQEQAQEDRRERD
Experimental: (§1) Control reactions were run in each plate. Assay buffer was substituted for the compound in positive and negative control wells. The fluorescence polarization was measured after 30 min of incubation. […] The IC50 values reported are the averages of three independent measurements.

[2] = target: T2, Macrophage colony-stimulating factor 1 receptor [538-678,753-922] (Homo sapiens, UniProt P07333); remark: listed apart in the source
T2 construct: 538-678,753-922
T2 sequence (P07333 whole entry): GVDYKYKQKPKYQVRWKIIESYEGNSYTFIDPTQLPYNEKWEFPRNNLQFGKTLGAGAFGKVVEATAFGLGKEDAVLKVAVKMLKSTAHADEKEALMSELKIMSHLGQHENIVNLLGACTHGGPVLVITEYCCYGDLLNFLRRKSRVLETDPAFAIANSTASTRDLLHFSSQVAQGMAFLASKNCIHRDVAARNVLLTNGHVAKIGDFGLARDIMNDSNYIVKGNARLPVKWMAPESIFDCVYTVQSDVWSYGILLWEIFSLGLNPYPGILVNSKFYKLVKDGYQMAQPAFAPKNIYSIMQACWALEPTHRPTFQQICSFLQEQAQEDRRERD
Experimental: as §1

[3] = target: T3, Macrophage colony-stimulating factor 1 receptor [538-972] (UniProt P07333)
T3 construct: 538-972
T3 sequence (P07333 whole entry): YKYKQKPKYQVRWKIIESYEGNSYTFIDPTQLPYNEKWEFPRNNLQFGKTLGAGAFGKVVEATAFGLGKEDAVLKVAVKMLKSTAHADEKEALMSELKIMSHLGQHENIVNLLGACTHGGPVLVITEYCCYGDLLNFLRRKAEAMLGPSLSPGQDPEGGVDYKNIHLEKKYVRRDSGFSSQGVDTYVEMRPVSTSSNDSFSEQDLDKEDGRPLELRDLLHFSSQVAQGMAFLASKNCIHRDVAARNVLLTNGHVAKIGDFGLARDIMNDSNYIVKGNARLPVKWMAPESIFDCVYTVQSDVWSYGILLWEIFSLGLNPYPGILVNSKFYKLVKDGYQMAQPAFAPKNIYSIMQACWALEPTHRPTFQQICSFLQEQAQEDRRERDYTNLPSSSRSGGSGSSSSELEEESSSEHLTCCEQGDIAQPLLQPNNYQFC
Experimental: as §1

Q: Which IC50 [1] does the source give for Cc1cc2ncc(-c3ccc(O)c(O)c3)nc2cc1C [2-(3,4-Dihydroxyphenyl)-6,7-dimethylquinoxaline] here?
A: 9.4 µM

Q: And the IC50 [2]?
A: 8.3 µM

Q: What about the IC50 [3] of the same compound?
A: 10 µM

Q: Which results are given for O=Nc1c(C2C(=O)Nc3ccccc32)[nH]c2ccccc12 (configuration not stated) [Indirubin-3 -monoxime]?
A: IC50 [1]: 4.2 µM; IC50 [2]: 4.5 µM; IC50 [3]: 4.8 µM

Q: CN(C)CCNC(=O)N1CCN(Cc2cc(C(F)(F)F)cc(C(F)(F)F)c2)CC1 [JNJ31117164] was tested. Which IC50 [1] did it give?
A: 1.2 µM

Q: What about the IC50 [2] of the same compound?
A: 1.3 µM

Q: And the IC50 [3]?
A: 1.2 µM

Q: Which results are given for N#C/C(=C\c1ccc(O)c(O)c1)C(N)=S [alpha-Cyano-(3,4-dihydroxy)thiocinnamide]?
A: IC50 [1]: 3 µM; IC50 [2]: 3.3 µM; IC50 [3]: 2.9 µM
